The target in this assay is T1, human androgen receptor (Homo sapiens, UniProt P10275, T878A).
T1 construct: endogenously expressed human androgen receptor using the LnCap prostate cancer cell line; endogenous in cells; host or cells: LNCaP prostate cancer cell line (whole cells)
T1 sequence (P10275 1-920 T878A): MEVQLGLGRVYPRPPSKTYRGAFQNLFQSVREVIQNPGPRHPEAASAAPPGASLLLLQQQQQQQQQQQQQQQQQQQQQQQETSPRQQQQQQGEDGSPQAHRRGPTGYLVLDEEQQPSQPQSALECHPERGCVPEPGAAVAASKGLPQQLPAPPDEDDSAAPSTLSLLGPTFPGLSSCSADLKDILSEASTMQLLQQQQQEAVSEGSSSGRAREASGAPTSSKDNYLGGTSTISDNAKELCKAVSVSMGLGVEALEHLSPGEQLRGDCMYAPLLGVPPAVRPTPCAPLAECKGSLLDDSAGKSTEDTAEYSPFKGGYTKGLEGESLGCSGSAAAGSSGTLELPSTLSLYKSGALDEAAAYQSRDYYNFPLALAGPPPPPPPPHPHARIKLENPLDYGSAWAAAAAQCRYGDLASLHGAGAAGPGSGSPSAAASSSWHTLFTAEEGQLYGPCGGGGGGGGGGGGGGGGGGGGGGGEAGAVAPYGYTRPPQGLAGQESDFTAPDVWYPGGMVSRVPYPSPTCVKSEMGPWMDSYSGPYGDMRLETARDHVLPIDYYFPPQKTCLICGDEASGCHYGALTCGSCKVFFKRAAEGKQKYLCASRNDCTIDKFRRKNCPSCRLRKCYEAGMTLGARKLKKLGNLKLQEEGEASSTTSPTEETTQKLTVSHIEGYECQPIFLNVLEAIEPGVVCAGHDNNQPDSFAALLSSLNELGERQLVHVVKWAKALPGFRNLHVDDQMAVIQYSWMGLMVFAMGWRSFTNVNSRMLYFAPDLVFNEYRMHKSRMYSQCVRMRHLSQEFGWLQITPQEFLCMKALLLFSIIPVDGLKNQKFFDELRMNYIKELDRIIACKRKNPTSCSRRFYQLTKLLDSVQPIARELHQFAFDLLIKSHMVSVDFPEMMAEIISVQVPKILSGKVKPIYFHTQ
Nature of the assay: Human Androgen Receptor Binding (radioligand binding, LnCap prostate cancer cell line). Conditions: LnCap cells, displacement of [^3H]-methyltrienolone, 2 hours at 37° C.; read-out: AR LNCaP. Summed up:
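Whole-cell displacement of [3H]-methyltrienolone from endogenous AR (T878A) in LnCap cells, in RPMI with 0.1% BSA and triamcinolone acetonide. Compounds 10 μM to 0.1 nM in 1:10 steps, 2 h at 37 °C; cells washed, SDS-lysed, bound radioactivity by scintillation counting for IC50.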
Consider `CC(=O)C1=C(C)NC(N)=C(C(=O)OCC2CCCCC2)C1c1csc2c(C#N)cccc12` (stereo not drawn) [Example D30, Cyclohexylmethyl 5-acetyl-2-amino-4-(7-cyanobenzo[b]thiophen-3-yl)-6-methyl-1,4-dihydropyridine-3-carboxylate], for which the IC50 was in the range of 100 to 1000 nM.
The value for `CC(=O)C1=C(C)NC(C)=C(C(=O)OCC2CC2)C1c1csc2ncccc12` (stereo not drawn) [Example C24, Cyclopropylmethyl 5-acetyl-2,6-dimethyl-4-(thieno[2,3-b]pyridin-3-yl)-1,4-dihydropyridine-3-carboxylate] was less than 100 nM; that for `CC(=O)C1=C(C)NC(C)=C(C(=O)OCc2cccnc2)C1c1csc2c(Br)cccc12` (stereo not drawn) [Example C58, Pyridin-3-ylmethyl 5-acetyl-4-(7-bromobenzo[b]thiophen-3-yl)-2,6-dimethyl-1,4-dihydropyridine-3-carboxylate] was less than 100 nM.
As to `CC(=O)C1=C(C)NC(C)=C(C(=O)OCc2cccnc2)C1c1csc2ccccc12` (stereo not drawn) [Example C48, Pyridin-3-ylmethyl 5-acetyl-4-(benzo[b]thiophen-3-yl)-2,6-dimethyl-1,4-dihydropyridine-3-carboxylate], the IC50 was no less than 1000 nM.
For `COC(=O)C1=C(C)NC(N)=C(C(=O)OCC(C)(C)C)C1c1csc2c(C#N)cccc12` (stereo not drawn) [Example D43, 5-Methyl 3-neopentyl 2-amino-4-(7-cyanobenzo[b]thiophen-3-yl)-6-methyl-1,4-dihydropyridine-3,5-dicarboxylate] the value was 100 to 1000 nM; for `CC(=O)C1=C(C)NC(N)=C(C(=O)OCc2cccc(F)c2)C1c1csc2c(C#N)cccc12` (stereo not drawn) [Example D32, 3-Fluorobenzyl 5-acetyl-2-amino-4-(7-cyanobenzo[b]thiophen-3-yl)-6-methyl-1,4-dihydropyridine-3-carboxylate], 100 to 1000 nM.
The value for `CC(=O)C1=C(C)NC(C)=C(C(=O)OC(C)(C)c2ccccc2)C1c1csc2ncccc12` (stereo not drawn) [Example C71, 2-phenylpropan-2-yl 5-acetyl-2,6-dimethyl-4-(thieno[2,3-b]pyridin-3-yl)-1,4-dihydropyridine-3-carboxylate] was no less than 1000 nM; that for `CC1=C(C(=O)OCC2CC2)C(c2csc3c(C#N)cccc23)C(C(=O)OCC2CC2)=C(N)N1` (stereo not drawn) [Example D46, Bis(cyclopropylmethyl) 2-amino-4-(7-cyanobenzo[b]thiophen-3-yl)-6-methyl-1,4-dihydropyridine-3,5-dicarboxylate] was no less than 1000 nM; that for `COC(=O)C1=C(C=O)NC(C2CC2)=C(C(=O)OC)C1c1csc2c(C#N)cccc12` (stereo not drawn) [Example C117, Dimethyl 4-(7-cyanobenzo[b]thiophen-3-yl)-2-cyclopropyl-6-formyl-1,4-dihydropyridine-3,5-dicarboxylate] was 100 to 1000 nM.
For `CC(=O)C1=C(C)NC(C)=C(C(=O)OCc2cccc(Br)c2)C1c1csc2ncccc12` (stereo not drawn) [Example C66, 3-bromobenzyl 5-acetyl-2,6-dimethyl-4-(thieno[2,3-b]pyridin-3-yl)-1,4-dihydropyridine-3-carboxylate] the value was 100 to 1000 nM; for `CC(=O)C1=C(C)NC(C)=C(C(=O)OCc2ccc(-c3cccnc3)cc2)C1c1csc2ncccc12` (stereo not drawn) [Example L2, 4-(pyridin-3-yl)benzyl 5-acetyl-2,6-dimethyl-4-(thieno[2,3-b]pyridin-3-yl)-1,4-dihydropyridine-3-carboxylate], no less than 1000 nM; for `CC(=O)C1=C(C)NC(C)=C(C(=O)OCC2CCOCC2)C1c1csc2ccc(Cl)cc12` (stereo not drawn) [Example C43, (Tetrahydro-2H-pyran-4-yl)methyl 5-acetyl-4-(5-chlorobenzo[b]thiophen-3-yl)-2,6-dimethyl-1,4-dihydropyridine-3-carboxylate], no less than 1000 nM.
Regarding `CC(=O)C1=C(C)NC(C)=C(C(=O)OCc2ccccc2)C1c1csc2ccc(F)cc12` (stereo not drawn) [Example C41, Benzyl 5-acetyl-4-(5-fluorobenzo[b]thiophen-3-yl)-2,6-dimethyl-1,4-dihydropyridine-3-carboxylate], the IC50 is no less than 1000 nM.
The value for `CC(=O)C1=C(C)NC(C)=C(C(=O)OCc2ccc(C#N)cc2)C1c1csc2ncccc12` (stereo not drawn) [Example C73, 4-cyanobenzyl 5-acetyl-2,6-dimethyl-4-(thieno[2,3-b]pyridin-3-yl)-1,4-dihydropyridine-3-carboxylate] was no less than 1000 nM; that for `CC(=O)C1=C(C)NC(C)=C(C(=O)OCc2ccncc2)C1c1csc2ccc(F)cc12` (stereo not drawn) [Example C46, Pyridin-4-ylmethyl 5-acetyl-4-(5-fluorobenzo[b]thiophen-3-yl)-2,6-dimethyl-1,4-dihydropyridine-3-carboxylate] was 100 to 1000 nM.
The value for `CC1=C(C#N)C(c2csc3c(C#N)cccc23)C(C(=O)OCC2CC2)=C(N)N1` (stereo not drawn) [Example D24, cyclopropylmethyl 2-amino-5-cyano-4-(7-cyanobenzo[b]thiophen-3-yl)-6-methyl-1,4-dihydropyridine-3-carboxylate] was 100 to 1000 nM; that for `CC(=O)C1=C(C)NC(C)=C(C(=O)OCc2ccccc2)C1c1csc2ncccc12` (stereo not drawn) [Example C39, Benzyl 5-acetyl-2,6-dimethyl-4-(thieno[2,3-b]pyridin-3-yl)-1,4-dihydropyridine-3-carboxylate] was 100 to 1000 nM; that for `CC(=O)C1=C(C)NC(C)=C(C(=O)OCc2cccc(-c3ccncc3)c2)C1c1csc2ncccc12` (stereo not drawn) [Example L3, 3-(pyridin-4-yl)benzyl 5-acetyl-2,6-dimethyl-4-(thieno[2,3-b]pyridin-3-yl)-1,4-dihydropyridine-3-carboxylate] was less than 100 nM.
For `CC(=O)C1=C(C)NC(C)=C(C(=O)OCc2ccccc2Br)C1c1csc2ncccc12` (stereo not drawn) [Example C67, 2-bromobenzyl 5-acetyl-2,6-dimethyl-4-(thieno[2,3-b]pyridin-3-yl)-1,4-dihydropyridine-3-carboxylate] the value was less than 100 nM.
Regarding `CC(=O)C1=C(C)NC(C)=C(C(=O)OCc2ccc(-c3ccncc3)cc2)C1c1csc2ncccc12` (stereo not drawn) [Example L1, 4-(pyridin-4-yl)benzyl 5-acetyl-2,6-dimethyl-4-(thieno[2,3-b]pyridin-3-yl)-1,4 dihydropyridine-3-carboxylate], the IC50 is no less than 1000 nM.
For `COC(=O)C1=C(C)NC(C=O)=C(C(=O)OC)C1c1csc2c(C#N)cccc12` (stereo not drawn) [Example C119, Dimethyl 4-(7-cyanobenzo[b]thiophen-3-yl)-2-formyl-6-methyl-1,4-dihydropyridine-3,5-dicarboxylate] the value was no less than 1000 nM; for `CC(=O)C1=C(C)NC(C)=C(C(=O)OCc2ccccc2)C1c1csc2ccccc12` (stereo not drawn) [Example B6, Benzyl 5-acetyl-4-(benzo[b]thiophen-3-yl)-2,6-dimethyl-1,4-dihydro-pyridine-3-carboxylate], no less than 1000 nM.
For `CC(=O)C1=C(C)NC(C2CC2)=C(C(=O)OCc2ccncc2)C1c1csc2c(Br)cccc12` (stereo not drawn) [Example J41, Pyridin-4-ylmethyl 5-acetyl-4-(7-bromobenzo[b]thiophen-3-yl)-2-cyclopropyl-6-methyl-1,4-dihydropyridine-3-carboxylate] the value was less than 100 nM; for `COC(=O)C1=C(C)NC(N)=C(C(=O)OCC2CC2)C1c1csc2c(C#N)cc(F)cc12` (stereo not drawn) [Example D39, 3-(Cyclopropylmethyl) 5-methyl 2-amino-4-(7-cyano-5-fluorobenzo[b]thiophen-3-yl)-6-methyl-1,4-dihydropyridine-3,5-dicarboxylate], 100 to 1000 nM.

Source of the values: patent US11453660B2, “Androgen receptor and glucocorticoid receptor modulators” (ONCOSTELLAE, S.L., priority 2017, dated 2022).
